# Laboratory results taken from US9957251B2 (Takeda Pharmaceutical Company Limited, priority 2014, dated 2018).
# Experiments:
# CDK8/CycC = target: T1, CDK8/CycC (Homo sapiens, UniProt P49336); assay: CDK8 inhibitory activity (TR-FRET, Kinase Tracer-236 displacement); assay type: binding; conditions: 1 μM of the test compound; read-out: Percent inhibition of CDK8 activity (%)
# T1 construct: purchased Carna Biosciences
# Procedure: (§1) The compound of the present invention was evaluated for its CDK8 inhibitory activity and CDK19 inhibitory activity by the following method. […] The primary diluted solution was dispensed in the amount of 2 μL/well to a 384-well plate, and then, a mixed solution of Eu^3+ Cryptate conjugated mouse monoclonal antibody anti-glutathione S-transferase (Cisbio) diluted 267-fold with an assay buffer and 60 nM Kinase Tracer-236 (Life technologies) was added thereto at 2 μL/well. After the addition, each kinase solution (84 ng/mL CDK8/CycC (Carna Biosciences) diluted with an assay buffer used for CDK8 inhibitory activity measurement, and 87 ng/mL CDC2L6/CycC (Carna Biosciences) diluted with an assay buffer used for CDK19 inhibitory activity measurement) was further added thereto at 2 μL/well. After the addition, the plate was left standing at room temperature for 1 hour, and then, the fluorescence intensity (excitation wavelength 320 nm, fluorescence wavelength 615 nm, 665 nm, delay time 50 μsec) was measured using an EnVision plate reader (PerkinElmer).
# [1] = test system: human multiple myeloma RPMI8226 cells; assay: Inhibitory activity against human multiple myeloma RPMI8226 cell growth (CellTiter-Glo); assay type: cell-based; conditions: Homo sapiens, RPMI-8226, 192 h, 1 μM of the test compound, cultured for 8 days; read-out: Percent inhibition of RPMI8226 cell growth (%)
# Procedure: The compound of the present invention was evaluated for its inhibitory activity against human multiple myeloma RPMI8226 cell growth by the following method.
# A suspension of human multiple myeloma RPMI8226 cells (purchased from the Health Protection Agency) was inoculated at 40 μL (300 cells/well) to a 384-well plate and cultured at 37° C. for 1 day in a 5% CO2 incubator. After the culture, each test compound solution was added thereto at a test concentration of 1 μM using TECAN D300, and the cells were further cultured for 8 days. After the culture, CellTiter-Glo™ Luminescent Cell Viability Assay reagent (Promega) was added at 40 μL/well to a 384-well plate, and the amount of luminescence was measured using a luminometer. Inhibitory activity against human multiple myeloma RPMI8226 cell growth (percent inhibition (%)) of the test compound was calculated according to the following formula, which is based on the hypothesis that the amount of residual ATP reflects the number of cells. In this formula, 100% control represents the amount of luminescence from a well with only 0.1% DMSO added. Percent inhibition (%)=(1−(amount of luminescence of the test compound)÷(100% control))×100
# CDK19 (CDC2L6/CycC) = target: T2, CDK19 (CDC2L6/CycC) (Homo sapiens, UniProt Q9BWU1); assay: CDK19 inhibitory activity (TR-FRET, Kinase Tracer-236 displacement); assay type: binding; conditions: 1 μM of the test compound; read-out: Percent inhibition of CDK19 activity (%)
# T2 construct: purchased Carna Biosciences
# T2 sequence (Q9BWU1 whole entry): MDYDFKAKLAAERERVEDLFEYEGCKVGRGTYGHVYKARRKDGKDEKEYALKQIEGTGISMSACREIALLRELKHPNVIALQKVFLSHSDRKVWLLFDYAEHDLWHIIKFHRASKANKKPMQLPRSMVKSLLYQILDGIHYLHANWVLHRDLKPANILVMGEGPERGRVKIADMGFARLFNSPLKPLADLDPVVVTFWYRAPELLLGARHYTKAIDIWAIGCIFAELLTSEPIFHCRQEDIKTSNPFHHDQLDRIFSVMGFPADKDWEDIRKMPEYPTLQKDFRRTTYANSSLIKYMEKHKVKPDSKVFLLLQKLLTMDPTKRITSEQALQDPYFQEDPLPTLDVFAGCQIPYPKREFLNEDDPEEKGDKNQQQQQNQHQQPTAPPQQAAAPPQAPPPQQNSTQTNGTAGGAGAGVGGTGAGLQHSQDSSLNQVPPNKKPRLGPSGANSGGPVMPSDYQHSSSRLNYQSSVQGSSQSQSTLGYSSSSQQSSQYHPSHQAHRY
# T2 sequence (P24863 whole entry partner): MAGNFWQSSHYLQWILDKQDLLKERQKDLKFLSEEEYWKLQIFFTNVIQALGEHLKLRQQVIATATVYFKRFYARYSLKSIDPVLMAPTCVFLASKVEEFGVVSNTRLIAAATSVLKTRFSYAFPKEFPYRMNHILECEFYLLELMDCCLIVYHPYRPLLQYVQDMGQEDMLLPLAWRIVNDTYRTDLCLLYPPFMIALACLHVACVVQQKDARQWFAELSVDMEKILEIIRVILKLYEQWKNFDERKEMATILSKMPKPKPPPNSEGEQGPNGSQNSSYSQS
# Procedure: as §1
# T1 sequence (P49336 whole entry): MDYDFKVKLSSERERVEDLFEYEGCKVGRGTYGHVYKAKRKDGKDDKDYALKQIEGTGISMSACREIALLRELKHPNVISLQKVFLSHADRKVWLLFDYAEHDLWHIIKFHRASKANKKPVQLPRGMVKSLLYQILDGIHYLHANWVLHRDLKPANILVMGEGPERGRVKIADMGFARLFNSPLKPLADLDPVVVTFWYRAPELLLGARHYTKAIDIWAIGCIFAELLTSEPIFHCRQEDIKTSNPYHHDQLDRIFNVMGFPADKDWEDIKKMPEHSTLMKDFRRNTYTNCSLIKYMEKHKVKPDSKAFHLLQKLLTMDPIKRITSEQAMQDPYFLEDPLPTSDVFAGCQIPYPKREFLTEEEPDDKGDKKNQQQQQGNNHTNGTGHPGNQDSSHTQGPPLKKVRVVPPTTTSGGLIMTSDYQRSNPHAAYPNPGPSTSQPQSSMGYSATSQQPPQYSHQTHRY
# T1 sequence (P24863 whole entry partner): as the sequence (P24863 whole entry partner) above
SMILES,inhibition at 1 µM (CDK8/CycC) [%],inhibition at 1 µM [1] [%],inhibition at 1 µM (CDK19 (CDC2L6/CycC)) [%]
"O=C(/C=C/c1cnccc1-c1cccs1)Nc1ccc(CCc2nnco2)cc1 [Example 1, (2E)-N-(4-(2-(1,3,4-Oxadiazol-2-yl)ethyl)phenyl)-3-(4-(2-thienyl)pyridin-3-yl)acrylamide]",101,59,100
"Cc1nn(C)cc1-c1ccncc1/C=C/C(=O)Nc1ccc(CCc2nnco2)cc1 [Example 19, (2E)-3-(4-(1,3-dimethyl-1H-pyrazol-4-yl)pyridin-3-yl)-N-(4-(2-(1,3,4-oxadiazol-2-yl)ethyl)phenyl)acrylamide]",100,54,98
"Cn1cc(-c2ccncc2/C=C/C(=O)Nc2ccc(CN3CCOCC3)cc2)cn1 [Example 31, (2E)-3-(4-(1-Methyl-1H-pyrazol-4-yl)pyridin-3-yl)-N-(4-(morpholin-4-ylmethyl)phenyl)acrylamide]",100,60,98
"O=C(/C=C/c1cnccc1-c1cn[nH]c1)Nc1ccc(CN2CCOCC2)cc1 [Example 33, (2E)-N-(4-(morpholin-4-ylmethyl)phenyl)-3-(4-(1H-pyrazol-4-yl)pyridin-3-yl)acrylamide]",100,61,99
"Cn1cc(-c2ccncc2/C=C/C(=O)Nc2ccc(CN3CCOC(C)(C)C3)cc2)cn1 [Example 37, (2E)-N-(4-((2,2-Dimethylmorpholin-4-yl)methyl)phenyl)-3-(4-(1-methyl-1H-pyrazol-4-yl)pyridin-3-yl)acrylamide]",97,61,101
"Cn1cc(-c2ccncc2/C=C/C(=O)Nc2ccc(CN3CCOCC3)cc2F)cn1 [Example 41, (2E)-N-(2-Fluoro-4-(morpholin-4-ylmethyl)phenyl)-3-(4-(1-methyl-1H-pyrazol-4-yl)pyridin-3-yl)acrylamide]",99,56,97
"Cn1cc(-c2ccncc2/C=C/C(=O)Nc2ccc(CN3CCOCC3)c(Cl)c2)cn1 [Example 42, (2E)-N-(3-Chloro-4-(morpholin-4-ylmethyl)phenyl)-3-(4-(1-methyl-1H-pyrazol-4-yl)pyridin-3-yl)acrylamide]",99,53,99
"CC(c1ccc(NC(=O)/C=C/c2cnccc2-c2cnn(C)c2)cc1)N1CCOCC1 (stereo not drawn) [Example 43, (2E)-3-(4-(1-methyl-1H-pyrazol-4-yl)pyridin-3-yl)-N-(4-(1-(morpholin-4-yl)ethyl)phenyl)acrylamide]",96,57,98
"O=C(/C=C/c1cnccc1-c1cnn(CC2CC2)c1)Nc1ccc(CN2CCOCC2)cc1 [Example 45, (2E)-3-(4-(1-(Cyclopropylmethyl)-1H-pyrazol-4-yl)pyridin-3-yl)-N-(4-(morpholin-4-ylmethyl)phenyl)acrylamide]",98,55,99
"O=C(/C=C/c1cnccc1-c1cnn(Cc2ccccn2)c1)Nc1ccc(CN2CCOCC2)cc1 [Example 47, (2E)-N-(4-(morpholin-4-ylmethyl)phenyl)-3-(4-(1-(pyridin-2-ylmethyl)-1H-pyrazol-4-yl)pyridin-3-yl)acrylamide]",101,57,98
"Cn1cc(-c2ccncc2/C=C/C(=O)Nc2ccc(CNC3CC3)cc2)cn1 [Example 49, (2E)-N-(4-((cyclopropylamino)methyl)phenyl)-3-(4-(1-methyl-1H-pyrazol-4-yl)pyridin-3-yl)acrylamide]",95,56,96
"Cn1cc(-c2ccncc2/C=C/C(=O)Nc2ccc(CN3CC4CCC(C3)O4)cc2)cn1 [Example 50, (2E)-3-(4-(1-methyl-1H-pyrazol-4-yl)pyridin-3-yl)-N-(4-(8-oxa-3-azabicyclo[3.2.1]oct-3-ylmethyl)phenyl)acrylamide]",96,61,97
"Cn1cc(-c2ccncc2/C=C/C(=O)Nc2ccc(CN3CC4CC3CO4)cc2)cn1 (stereo not drawn) [Example 51, (2E)-3-(4-(1-methyl-1H-pyrazol-4-yl)pyridin-3-yl)-N-(4-(2-oxa-5-azabicyclo[2.2.1]hept-5-ylmethyl)phenyl)acrylamide]",100,58,96
"C[C@@H]1CN(Cc2ccc(NC(=O)/C=C/c3cnccc3-c3cnn(C)c3)cc2)C[C@H](C)O1 [Example 53, (2E)-N-(4-(((2R,65)-2,6-dimethylmorpholin-4-yl)methyl)phenyl)-3-(4-(1-methyl-1H-pyrazol-4-yl)pyridin-3-yl)acrylamide]",101,58,97
"CC1COCCN1Cc1ccc(NC(=O)/C=C/c2cnccc2-c2cnn(C)c2)cc1 (stereo not drawn) [Example 54, (2E)-N-(4-((3-methylmorpholin-4-yl)methyl)phenyl)-3-(4-(1-methyl-1H-pyrazol-4-yl)pyridin-3-yl)acrylamide]",100,55,95
"CC1CN(Cc2ccc(NC(=O)/C=C/c3cnccc3-c3cnn(C)c3)cc2)CCO1 (stereo not drawn) [Example 55, (2E)-N-(4-((2-methylmorpholin-4-yl)methyl)phenyl)-3-(4-(1-methyl-1H-pyrazol-4-yl)pyridin-3-yl)acrylamide]",99,55,97
Cn1cc(-c2ccncc2/C=C/C(=O)Nc2ccc(CN3CC(F)(F)OC(F)(F)C3)cc2)cn1 [Example 58],97,55,98
"Cn1cc(-c2ccncc2/C=C/C(=O)Nc2ccc(CN3CCC(F)(F)C3)cc2)cn1 [Example 68, (2E)-N-(4-((3,3-difluoropyrrolidin-1-yl)methyl)phenyl)-3-(4-(1-methyl-1H-pyrazol-4-yl)pyridin-3-yl)acrylamide]",99,62,100
"Cn1cc(-c2ccncc2/C=C/C(=O)Nc2ccc(CN3CC(F)(F)C3)cc2)cn1 [Example 69, (2E)-N-(4-((3,3-difluoroazetidin-1-yl)methyl)phenyl)-3-(4-(1-methyl-1H-pyrazol-4-yl)pyridin-3-yl)acrylamide]",99,48,99
"Cn1cc(-c2ccncc2/C=C/C(=O)Nc2ccc(CNCC(F)(F)C(F)(F)F)cc2)cn1 [Example 73, (2E)-3-(4-(1-methyl-1H-pyrazol-4-yl)pyridin-3-yl)-N-(4-(((2,2,3,3,3-pentafluoropropyl)amino)methyl)phenyl)acrylamide]",101,56,99
"Cn1cc(-c2ccncc2/C=C/C(=O)Nc2ccc(CN3CCCC3CO)cc2)cn1 (stereo not drawn) [Example 76, (2E)-N-(4-((2-(hydroxymethyl)pyrrolidin-1-yl)methyl)phenyl)-3-(4-(1-methyl-1H-pyrazol-4-yl)pyridin-3-yl)acrylamide]",104,52,93
"Cn1cc(-c2ccncc2/C=C/C(=O)Nc2ccc(CN3CCN4CCCC4C3)cc2)cn1 (stereo not drawn) [Example 78, (2E)-N-(4-(hexahydropyrrolo[1,2-a]pyrazin-2(1H)-ylmethyl)phenyl)-3-(4-(1-methyl-1H-pyrazol-4-yl)pyridin-3-yl)acrylamide]",100,59,74
"Cn1cc(-c2ccncc2/C=C/C(=O)Nc2ccc(CN3CCC4(CC3)COC4)cc2)cn1 [Example 84, (2E)-3-(4-(1-methyl-1H-pyrazol-4-yl)pyridin-3-yl)-N-(4-(2-oxa-7-azaspiro[3.5]non-7-ylmethyl)phenyl)acrylamide]",97,60,97
"Cn1cc(-c2ccncc2/C=C/C(=O)Nc2ccc(CNC3CC(F)(F)C3)cc2)cn1 [Example 89, (2E)-N-(4-(((3,3-difluorocyclobutyl)amino)methyl)phenyl)-3-(4-(1-methyl-1H-pyrazol-4-yl)pyridin-3-yl)acrylamide]",96,63,97
